According to ChEMBL document CHEMBL4507276 (2021):

Legend:
Details in all cases: Compound concentration 1000.0 nM
[1] = target: Serine/threonine-protein kinase MRCK beta (Homo sapiens) (UniProt Q9Y5S2)
[2] = target: Tyrosine-protein kinase JAK2 (Homo sapiens) (UniProt O60674)
[3] = target: Receptor-interacting serine/threonine-protein kinase 2 (Homo sapiens) (UniProt O43353)
[4] = target: T1, TGF-beta receptor type-1 (Homo sapiens) (UniProt P36897)
T1 sequence (whole entry): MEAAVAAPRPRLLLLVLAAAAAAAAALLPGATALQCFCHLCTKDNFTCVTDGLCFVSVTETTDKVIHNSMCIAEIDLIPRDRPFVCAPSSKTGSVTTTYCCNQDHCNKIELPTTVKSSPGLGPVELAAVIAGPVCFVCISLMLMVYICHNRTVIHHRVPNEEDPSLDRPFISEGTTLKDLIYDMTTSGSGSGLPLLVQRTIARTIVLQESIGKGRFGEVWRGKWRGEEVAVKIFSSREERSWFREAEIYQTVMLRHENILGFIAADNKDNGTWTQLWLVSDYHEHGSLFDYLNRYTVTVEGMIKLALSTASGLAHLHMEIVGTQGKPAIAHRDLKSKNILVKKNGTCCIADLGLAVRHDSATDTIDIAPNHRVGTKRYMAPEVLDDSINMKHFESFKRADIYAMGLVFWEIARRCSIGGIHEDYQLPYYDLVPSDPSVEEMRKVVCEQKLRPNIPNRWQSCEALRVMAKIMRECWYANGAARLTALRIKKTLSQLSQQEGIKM

[5] = target: SRSF protein kinase 1 (Homo sapiens) (UniProt Q96SB4)
[6] = target: Dual specificity testis-specific protein kinase 1 (Homo sapiens) (UniProt Q15569)
[7] = tested on: Tyrosine-protein kinase ABL1 (Homo sapiens), P00519 [F317I]
[8] = tested on: Tyrosine-protein kinase ABL1 (Homo sapiens), P00519 [F317L]
[9] = target: Calcium/calmodulin-dependent protein kinase type II subunit gamma (Homo sapiens) (UniProt Q13555)
[10] = target: T2, Activin receptor type-1B (Homo sapiens) (UniProt P36896)
T2 sequence (whole entry): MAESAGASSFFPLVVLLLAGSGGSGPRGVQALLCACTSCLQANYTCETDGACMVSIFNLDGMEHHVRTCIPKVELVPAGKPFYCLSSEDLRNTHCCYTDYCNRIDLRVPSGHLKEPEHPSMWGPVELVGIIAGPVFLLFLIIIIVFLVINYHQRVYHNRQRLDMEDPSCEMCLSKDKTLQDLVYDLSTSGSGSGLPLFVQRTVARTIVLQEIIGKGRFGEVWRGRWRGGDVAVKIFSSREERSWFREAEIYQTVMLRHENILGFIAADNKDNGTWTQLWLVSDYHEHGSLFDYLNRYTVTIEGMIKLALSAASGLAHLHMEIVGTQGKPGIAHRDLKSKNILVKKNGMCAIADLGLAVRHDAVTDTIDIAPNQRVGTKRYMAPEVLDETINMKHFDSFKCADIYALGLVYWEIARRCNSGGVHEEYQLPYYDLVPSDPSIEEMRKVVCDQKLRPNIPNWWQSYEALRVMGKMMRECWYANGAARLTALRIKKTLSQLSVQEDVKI

[11] = tested on: Leucine-rich repeat serine/threonine-protein kinase 2 (Homo sapiens), Q5S007 [G2019S]
[12] = target: T3, Serine/threonine-protein kinase Chk1 (Homo sapiens) (UniProt O14757)
T3 sequence (whole entry): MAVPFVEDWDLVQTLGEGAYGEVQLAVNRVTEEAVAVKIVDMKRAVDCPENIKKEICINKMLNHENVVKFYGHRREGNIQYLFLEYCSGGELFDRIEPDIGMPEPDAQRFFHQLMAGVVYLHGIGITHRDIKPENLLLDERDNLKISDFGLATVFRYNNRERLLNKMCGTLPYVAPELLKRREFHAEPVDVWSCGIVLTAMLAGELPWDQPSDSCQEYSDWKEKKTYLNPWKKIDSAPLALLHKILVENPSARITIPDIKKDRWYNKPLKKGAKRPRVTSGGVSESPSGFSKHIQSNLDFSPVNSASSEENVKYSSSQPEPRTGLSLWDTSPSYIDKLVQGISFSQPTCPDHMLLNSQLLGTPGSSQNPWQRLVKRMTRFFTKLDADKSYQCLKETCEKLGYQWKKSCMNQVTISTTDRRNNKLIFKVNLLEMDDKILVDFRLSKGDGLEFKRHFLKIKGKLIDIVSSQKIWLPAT

[13] = target: Myosin light chain kinase 2, skeletal/cardiac muscle (Homo sapiens) (UniProt Q9H1R3)

Measured: residual activity

Sequence of Dual specificity testis-specific protein kinase 1 (Homo sapiens) (Q15569 whole entry, looked up): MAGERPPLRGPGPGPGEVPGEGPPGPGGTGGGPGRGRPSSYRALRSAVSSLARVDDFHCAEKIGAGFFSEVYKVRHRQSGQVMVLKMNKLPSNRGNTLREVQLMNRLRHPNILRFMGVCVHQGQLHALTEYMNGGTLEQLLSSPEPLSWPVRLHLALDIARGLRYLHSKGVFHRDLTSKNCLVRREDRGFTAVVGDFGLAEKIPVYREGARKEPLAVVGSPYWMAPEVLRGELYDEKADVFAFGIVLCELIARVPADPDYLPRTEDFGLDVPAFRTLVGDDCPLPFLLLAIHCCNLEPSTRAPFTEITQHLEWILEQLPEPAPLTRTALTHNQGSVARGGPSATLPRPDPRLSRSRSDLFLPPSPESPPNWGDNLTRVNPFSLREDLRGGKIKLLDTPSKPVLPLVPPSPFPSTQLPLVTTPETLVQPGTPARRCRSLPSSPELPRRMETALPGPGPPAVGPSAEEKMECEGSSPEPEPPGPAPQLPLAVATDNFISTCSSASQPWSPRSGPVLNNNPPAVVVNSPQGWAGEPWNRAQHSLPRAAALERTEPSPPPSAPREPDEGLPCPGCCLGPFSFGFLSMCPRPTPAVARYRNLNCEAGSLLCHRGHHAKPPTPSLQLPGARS
Sequence of Serine/threonine-protein kinase MRCK beta (Homo sapiens) (Q9Y5S2 whole entry): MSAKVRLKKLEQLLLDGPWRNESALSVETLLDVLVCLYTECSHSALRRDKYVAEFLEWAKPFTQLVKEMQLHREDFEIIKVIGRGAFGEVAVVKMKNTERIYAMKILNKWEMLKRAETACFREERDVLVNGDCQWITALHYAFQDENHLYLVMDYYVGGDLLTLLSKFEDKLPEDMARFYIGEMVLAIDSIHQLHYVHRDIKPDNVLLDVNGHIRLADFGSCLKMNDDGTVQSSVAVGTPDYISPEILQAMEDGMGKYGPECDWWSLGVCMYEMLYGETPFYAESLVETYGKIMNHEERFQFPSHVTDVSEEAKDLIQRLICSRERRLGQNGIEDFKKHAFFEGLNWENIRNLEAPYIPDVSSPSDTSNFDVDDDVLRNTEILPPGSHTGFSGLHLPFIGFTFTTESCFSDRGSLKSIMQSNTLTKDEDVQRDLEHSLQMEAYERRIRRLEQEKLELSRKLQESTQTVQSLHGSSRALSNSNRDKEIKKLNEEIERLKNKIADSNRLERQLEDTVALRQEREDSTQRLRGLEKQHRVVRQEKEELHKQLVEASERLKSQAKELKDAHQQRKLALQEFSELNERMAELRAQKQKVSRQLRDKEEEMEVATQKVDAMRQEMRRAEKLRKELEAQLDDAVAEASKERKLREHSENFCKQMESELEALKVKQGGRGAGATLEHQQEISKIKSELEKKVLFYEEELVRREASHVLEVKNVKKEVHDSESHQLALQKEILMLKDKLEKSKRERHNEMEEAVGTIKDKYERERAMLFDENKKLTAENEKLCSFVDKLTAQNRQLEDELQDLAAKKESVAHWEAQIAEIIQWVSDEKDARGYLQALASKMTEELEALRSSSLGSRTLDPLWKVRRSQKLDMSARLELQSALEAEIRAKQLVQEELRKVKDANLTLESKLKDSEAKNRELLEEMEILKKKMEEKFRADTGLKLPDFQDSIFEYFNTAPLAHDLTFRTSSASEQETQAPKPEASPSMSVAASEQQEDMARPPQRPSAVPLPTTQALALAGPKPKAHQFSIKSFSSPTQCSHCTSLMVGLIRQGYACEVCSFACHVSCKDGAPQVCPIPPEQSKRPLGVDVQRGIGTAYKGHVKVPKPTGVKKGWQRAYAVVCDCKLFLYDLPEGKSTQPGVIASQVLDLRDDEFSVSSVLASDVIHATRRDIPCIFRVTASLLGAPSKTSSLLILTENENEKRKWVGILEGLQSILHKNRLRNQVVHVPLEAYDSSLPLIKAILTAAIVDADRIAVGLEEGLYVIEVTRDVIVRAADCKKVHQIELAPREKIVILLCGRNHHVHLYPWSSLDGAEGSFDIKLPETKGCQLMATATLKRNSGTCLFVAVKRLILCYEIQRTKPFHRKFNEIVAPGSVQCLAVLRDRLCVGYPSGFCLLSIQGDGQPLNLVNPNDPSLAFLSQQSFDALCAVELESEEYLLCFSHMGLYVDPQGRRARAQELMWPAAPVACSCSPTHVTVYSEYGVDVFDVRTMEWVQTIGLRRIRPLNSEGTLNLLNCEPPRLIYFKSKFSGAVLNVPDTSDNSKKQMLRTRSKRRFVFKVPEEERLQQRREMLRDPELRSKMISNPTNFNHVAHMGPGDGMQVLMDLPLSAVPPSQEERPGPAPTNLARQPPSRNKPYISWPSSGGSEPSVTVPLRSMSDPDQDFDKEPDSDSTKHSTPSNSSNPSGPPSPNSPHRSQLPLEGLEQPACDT
Sequence of Tyrosine-protein kinase ABL1 (Homo sapiens), P00519 [F317L] (P00519 whole entry F317L): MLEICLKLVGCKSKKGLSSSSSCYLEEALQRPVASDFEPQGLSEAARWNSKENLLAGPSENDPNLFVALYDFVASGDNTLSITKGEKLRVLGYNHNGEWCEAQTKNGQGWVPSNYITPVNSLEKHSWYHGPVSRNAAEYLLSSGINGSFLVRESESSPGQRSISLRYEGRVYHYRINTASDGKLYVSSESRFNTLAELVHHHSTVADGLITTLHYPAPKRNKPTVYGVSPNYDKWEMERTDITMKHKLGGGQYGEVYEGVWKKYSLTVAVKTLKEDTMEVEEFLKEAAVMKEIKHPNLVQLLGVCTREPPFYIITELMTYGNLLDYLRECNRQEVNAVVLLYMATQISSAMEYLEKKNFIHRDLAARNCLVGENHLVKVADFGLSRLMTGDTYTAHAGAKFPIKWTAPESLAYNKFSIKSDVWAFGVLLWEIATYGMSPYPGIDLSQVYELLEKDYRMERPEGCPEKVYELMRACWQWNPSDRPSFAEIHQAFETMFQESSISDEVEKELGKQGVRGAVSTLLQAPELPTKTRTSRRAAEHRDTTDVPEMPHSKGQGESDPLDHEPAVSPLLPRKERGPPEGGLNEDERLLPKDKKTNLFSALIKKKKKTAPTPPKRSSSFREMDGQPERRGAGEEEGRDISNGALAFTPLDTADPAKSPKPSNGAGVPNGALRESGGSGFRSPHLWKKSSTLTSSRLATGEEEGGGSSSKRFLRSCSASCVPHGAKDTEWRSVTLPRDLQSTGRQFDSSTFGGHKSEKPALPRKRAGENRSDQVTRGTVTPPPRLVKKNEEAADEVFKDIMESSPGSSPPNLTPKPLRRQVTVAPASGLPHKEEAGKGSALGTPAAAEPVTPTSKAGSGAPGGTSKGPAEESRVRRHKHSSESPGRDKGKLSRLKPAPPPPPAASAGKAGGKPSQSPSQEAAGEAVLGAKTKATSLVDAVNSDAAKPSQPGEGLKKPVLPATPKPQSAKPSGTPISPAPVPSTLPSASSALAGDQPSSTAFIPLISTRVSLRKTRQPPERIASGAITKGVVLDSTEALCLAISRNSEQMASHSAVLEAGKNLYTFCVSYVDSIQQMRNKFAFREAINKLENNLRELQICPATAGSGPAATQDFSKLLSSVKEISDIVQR
Sequence of Tyrosine-protein kinase JAK2 (Homo sapiens) (O60674 whole entry): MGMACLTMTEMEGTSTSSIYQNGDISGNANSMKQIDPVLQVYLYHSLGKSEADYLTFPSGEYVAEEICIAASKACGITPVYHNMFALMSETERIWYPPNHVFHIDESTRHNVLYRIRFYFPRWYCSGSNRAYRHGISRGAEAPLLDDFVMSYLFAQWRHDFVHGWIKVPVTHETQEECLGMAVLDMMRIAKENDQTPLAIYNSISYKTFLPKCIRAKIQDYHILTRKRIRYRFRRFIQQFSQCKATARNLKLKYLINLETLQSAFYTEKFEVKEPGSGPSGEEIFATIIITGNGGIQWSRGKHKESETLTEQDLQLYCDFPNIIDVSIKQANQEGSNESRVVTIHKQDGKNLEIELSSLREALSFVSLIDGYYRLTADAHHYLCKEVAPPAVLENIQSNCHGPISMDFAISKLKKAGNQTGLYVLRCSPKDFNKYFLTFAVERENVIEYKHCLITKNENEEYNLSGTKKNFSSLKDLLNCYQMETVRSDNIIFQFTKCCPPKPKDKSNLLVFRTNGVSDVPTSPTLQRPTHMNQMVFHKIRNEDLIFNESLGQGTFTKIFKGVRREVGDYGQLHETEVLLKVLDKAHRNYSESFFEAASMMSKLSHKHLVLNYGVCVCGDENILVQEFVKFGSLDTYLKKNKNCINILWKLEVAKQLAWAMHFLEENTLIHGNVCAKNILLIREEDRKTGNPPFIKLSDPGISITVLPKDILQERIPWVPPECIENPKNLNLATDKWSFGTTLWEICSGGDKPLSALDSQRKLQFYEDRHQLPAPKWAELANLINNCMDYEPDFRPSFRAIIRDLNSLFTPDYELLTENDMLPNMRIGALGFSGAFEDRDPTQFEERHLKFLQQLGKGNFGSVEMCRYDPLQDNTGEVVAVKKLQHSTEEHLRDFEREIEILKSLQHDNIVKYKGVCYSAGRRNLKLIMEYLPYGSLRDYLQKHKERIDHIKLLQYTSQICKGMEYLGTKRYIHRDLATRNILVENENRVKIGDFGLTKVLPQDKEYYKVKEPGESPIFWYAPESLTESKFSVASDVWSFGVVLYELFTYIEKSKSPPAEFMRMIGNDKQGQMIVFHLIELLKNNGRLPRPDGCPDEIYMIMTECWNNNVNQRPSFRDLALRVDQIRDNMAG
Sequence of Tyrosine-protein kinase ABL1 (Homo sapiens), P00519 [F317I] (P00519 whole entry F317I): as the sequence (P00519 whole entry F317L) above, with L317I counted along it

CN(C)C(=O)Cn1cc(-c2nc(C3(c4ccc(-c5cnc(N)nc5)cc4)CC3)no2)cn1 [BI 0153]
inactive: [1] 85% | [2] 65% | [3] 100% | [4] 97% | [5] 93% | [6] 94% | [7] 76% | [8] 85% | [9] 98% | [10] 84% | [11] 100% | [12] 100% | [13] 90%

CN(C)C(=O)Cn1cc(-c2nc([C@@](C)(c3ccc(-c4cnc(N)nc4)cc3)C3CC3)no2)cn1 [BI 665915]
inactive: [1] 99% | [2] 73% | [3] 87% | [4] 100% | [5] 100% | [6] 90% | [7] 96% | [8] 88% | [9] 100% | [10] 89% | [11] 100% | [12] 85% | [13] 100%
